Results reported in patent US9186344B2, “Glycogen or polysaccharide storage disease treatment method” (Baylor Research Institute, priority 2004, dated 2015).

Key:
[1] = test system: adult-onset GSD II (acid maltase deficiency) patient; assay: Clinical course and pCO2 on triheptanoin diet, Example 1 patient; format: in vivo, human
Excerpt: During the subsequent 2 years, the patient experienced progressive muscle weakness, affecting strength and endurance, swallowing and producing urgency for urination and defecation. The patient's breathing became a major issue and weight had decreased from ˜127 to 101 lbs (46 Kg) over this interval. […] Home O2 was started and upon respiratory arrest was intubated and unsuccessfully extubated leading to emergency admission lasting one month. Following informed consent, the patient agreed to enter an approved Institutional Review Board (IRB) Protocol for dietary therapy with triheptanoin oil.
Clinical and Biochemical Course on Therapy. […] Esophageal dysmotility was documented. A percutaneous endoscopic gastrostomy (PEG) was placed on the sixth hospital day.
The diet was based on vivonex and ˜1500 Kcal was given by nasogastric tube, on admission. […] Total caloric intake was raised from ˜1500 to 1700 to 1900 per day with these dietary changes during […] 33 day admission.
The patient began ambulating by the 10th day that improved steadily, showering with assistance by the 28th day. Pneumonia on day 17 responded to therapy and was extubated on day 23. They were discharged on bilevel positive airway pressure (BIPAP), the C7 diet, and carnitine supplement.

[2] = test system: FOD patients (CPT I, CACT, CPT II, VLCAD, TFP, LCHAD, SCAD deficiency); assay: Odd chain fatty acid (triheptanoin) diet in patients with mitochondrial fat oxidation defects (FOD); format: in vivo, human; settings: for Patient mortality / Patient mortality (deaths/patients): C7 Diet
Excerpt: Other examples of FODs that derive from errors in metabolism include: Carnitine Palmitoyl Transferase I (CPT I) deficiency, Carnitine-Acylcarnitine Translocase (CACT) deficiency, Carnitine Palmitoyl Transferase […] deficiency, very long chain acyl-CoA dehydrogenase (VLCAD) deficiency, Trifunctional Protein (TFP) deficiency, long chain acyl 3-hydroxy CoA dehydrogenase (LCHAD) and short chain acyl CoA dehydrogenase (SCAD) deficiency. Patients having each of these diseases were located and placed on an odd chain fatty acid diet, with informed consent and following under IRB.
The odd chain fatty acid diet and therapy of the present invention was compared to conventional treatments, which include: (1) a low fat, high carbohydrate diet; avoid fasting; frequent or continuous feeding and night time corn starch; or (2) a medium chain triglyceride (MCT oil) for long chain disorders; or (3) insulin and glucose to inhibit lipolysis. However, current treatments fail to treat the hypoglycemia and hepatomegaly (which often persist), the frequency and severity of Rhabdomyolysis; muscle weakness and fatigue are not improved and heart function often remains abnormal. Biochemically, the failure of existing therapies leave patients with impaired Acetyl-CoA production and ketogenesis, there remains an increase Acyl-CoA:CoA (mitochondrion) ratio during illness, a decreased NADH:NAD ratio during illness (mitochondrion), hypoglycemia and hyperammonemia.
Table 4 summarized a comparison of patent mortality for patients with FOD of conventional treatment (based on the literature, see *Neonatal onset; Conventional Diet Rx: JIMD 22: 488,1999), and the odd chain fatty acids of the present invention. There is a demonstrable increase in patient survival across a number of FODs.

[3] = test system: polysaccharide storage myopathy (PSSM); assay: Treatment of horses with polysaccharide storage myopathy with triheptanoin diet; format: in vivo, horse
Experimental: Treatment of Horses. […] The first was an 8 year old mare who was unable to walk or exercise without severe muscle pain, rhabdomyolysis, and “locking up.” The owners were approaching “putting the animal down” (killing it). […] A second horse was encountered at 4 months with proven polysaccharide storage myopathy (PSSM) that was not able to walk adequately or nurse from its mother. The owners were prepared to kill the animal but decided to try the triheptanoin diet first. […] A third horse, also an 8 year old mare, developed PSSM and “locked up.” She was no longer available to ride and could no longer jump.

[4] = Blood acylcarnitine profile after triheptanoin via nasogastric tube; format: in vivo, horse
Excerpt: (§1) Acylcarnitine Profiles. Acylcarnitines and carnitine levels in dried blood spots (dbs), plasma and amniotic fluid by automated electrospray tandem mass spectrometry Acylcarnitines are extracted from blood spots, plasmas and amniotic fluid with methanol containing stable isotopically labeled internal standards. The extract is derivatized to form butyl esters. An automated sample introduction system delivers the samples to the electrospray tandem mass spectrometer (ESI-MS/MS) operating in the multiple channel analysis mode in which acylcarnitines are identified, profiled, and quantified with stable isotopically labeled internal standards. This test also provides quantification of free, sum of acylcarnitines, and total carnitine levels.
Horses: Eight healthy, fit 4 year old thoroughbred geldings may be used in a study. These horses are all sound and trained to the treadmill. The ability of horses to absorb and digest C7 oil was first determined.

GSDII patient = assay: Urinary organic acids, blood acylcarnitines and plasma amino acids, Example 2 patient; format: in vivo, human; settings: thirteen hours after initiating the C7 diet
Experimental: Organic Acids may be measured as follows. Organic acids in urine specimens are determined with isolation by Liquid Partition Chromatography (LPC) and quantitative Gas Chromatography-Mass Spectrometry (GCMS) using an internal standard. The specimen is derivatized to form pentafluorobenzyl oximes (PFBO) of oxo-acids and the organic acids isolated by Liquid Partition chromatography on silicic acid hydrated with dilute sulfuric acid and eluted with mixtures of tert-Amyl alcohol and chloroform. After drying, the organic acids are derivatized to form volatile trimethylsilyl (TMS) derivatives for separation by capillary Gas Chromatography (GC) with temperature programming. Detection is by Mass Spectrometry (MS) with identification of the organic acids by their mass spectra. Organic acids are quantified by peak areas of reconstructed ion chromatograms with internal standards and calibration curves.
as §1
Citrate supplementation was continued throughout the treatment.

[5] = on C7 diet and carnitine supplement
[6] = dietary triheptanoin supplementation, FOD patients

Compound: CCCCCCC(=O)OCC(COC(=O)CCCCCC)OC(=O)CCCCCC [C7, triheptanoin]
- pCO2 (35-45) ([1]; Hospital Day 1, C7 26% Kcal): 43
- pCO2 (35-45) ([1]; Hospital Day 4, C7 35% Kcal): 51
- pCO2 (35-45) ([1]; Hospital Day 7, C7 35% Kcal): 42
- pCO2 (35-45) ([1]; Hospital Day 23, C7 40% Kcal, extubated): 48
- pCO2 (35-45) ([1]; Hospital Day 33, C7 40% Kcal, discharge): 44
- gastrostomy feeds stopped (swallowing improved) ([1]; after discharge): 7 months
- patient weight ([1]; by 15 months post-discharge, 46 Kg on admission): 60 kg
- day of extubation ([1]; hospital admission on C7 diet): 23 days
- return to work half-time after discharge [1, 5]: 5 weeks
- working full-time after discharge [1, 5]: ≤ 10 weeks
- full vital capacity ([1]; post-discharge follow-up): 40-45 % of predicted
- urgency for urination and defecation ([1]; within 13 hours of beginning the C7 diet): had ceased and remained normal for the rest of the admission
- pCO2 ([1]; within 13 hours of beginning the C7 diet, fell from 68, normal 35-45): 43
- Patient mortality ([2]; CACT, neonatal onset): 100%
- Patient mortality (deaths/patients) ([2]; CACT, neonatal onset): 1/1
- retinopathy (Choroideremia) ([2]; LCHAD patients): unchanged
- Patient mortality ([2]; LCHAD): 0%
- Patient mortality (deaths/patients) ([2]; LCHAD): 0/9
- peripheral neuropathy ([2]; TFP patients): unchanged
- Patient mortality ([2]; TFP): 0%
- Patient mortality (deaths/patients) ([2]; TFP): 1/5
- Patient mortality ([2]; VLCAD): 5%
- Patient mortality (deaths/patients) ([2]; VLCAD): 1/19
- Rhabdomyolysis [2, 6]: marked attenuation of Rhabdomyolysis
- cardiomyopathies [2, 6]: cardiomyopathies were resolved
- glucose homeostasis [2, 6]: normal glucose homeostasis was observed
- hepatomegaly [2, 6]: elimination of hepatomegaly
- mortality [2, 6]: reduced mortality
- muscle strength and endurance [2, 6]: improved muscle strength and endurance
- CPK (creatine kinase) levels ([2]; long-chain defects, FIG. 9): rapidly suppresses CPK levels
- time to become asymptomatic ([3]; first horse, 8 year old mare, triheptanoin in feed pellets): ≤ 30 days
- blood enzyme levels related to muscle disease (including serum creatine phosphokinase) ([3]; second horse, 4 month foal): had normalized
- time to running and playing without muscle pain ([3]; second horse, 4 month foal): ≤ 24 h
- symptoms after adjustment of the dose for weight gain ([3]; second horse, dose back to 2 grams/Kg body weight): eliminated all symptoms
- clinical status ([3]; third horse, 8 year old mare, 1.0 gm/Kg/day, one week of diet treatment): asymptomatic with normal blood chemistry levels
- time of peak of C7 acyl carnitine ([4]; 0.5 gm/kg via nasogastric tube, fasted 12 hours, three horses): 90 min
- time of peak serum concentration of C3 acylcarnitine ([4]; in vivo): 120 min
- time of peak serum concentration of C5 acylcarnitine ([4]; in vivo): 120 min
- increase of plasma BCAA's (GSDII patient): ~2 fold
- increase of plasma Glutamine (GSDII patient): ~2 fold
- increase of plasma alanine level (GSDII patient): 4 fold
